Experiment: Loss of MK-7 on direct compression into tablets with calcium or magnesium excipients
Type: physicochemical
Settings: directly compressed with excipients such as calcium or magnesium
Text: However, vitamins K1 and K2 degrade when formulated in a conventional dosage form, such as a tablet, in the presence of mineral salts, in particular calcium or magnesium salts. Moreover, during formulation of the dosage form, there is a still yet further opportunity for degradation. When directly compressed along with some excipients in a tablet such as calcium or magnesium, a serious reduction in the amount of MK-7 present after tableting can be observed, such as up to 30% reduction in MK-7. As MK-7 is expensive, that is not an acceptable loss on formulation. The MK-7 degradation appears to be accelerated in the presence of calcium or magnesium. As calcium and magnesium are valuable minerals, it is desirable to be able to formulate vitamins in general and MK-7 in particular with calcium and magnesium.

Question: For `CC(C)=CCC/C(C)=C/CC/C(C)=C/CC/C(C)=C/CC/C(C)=C/CC/C(C)=C/CC/C(C)=C/CC1=C(C)C(=O)c2ccccc2C1=O` [MK-7], which “reduction in MK-7 after tableting” value is on record?
Answer: up to 30%
